Experimental data taken from patent US4537967A, “1-Oxo-1,2,3,4-tetrahydro-3-isoquinoline carboxylic acid derivatives” (Wakamoto Pharmaceutical Co., Ltd., priority 1982, dated 1985).

Assays:
[1] = target: T1, angiotensin converting enzyme (ACE) (Oryctolagus cuniculus, UniProt P12822); test: ACE inhibition in vitro with hippuryl-L-histidine-L-leucine as substrate (method of Biochemical Pharmacology, 20, 1637 (1971)); set-up: species or system rabbit (lung); conditions: read-out: 50% inhibition concentration (ID50)
T1 construct: ACE extracted from rabbit lung and purified; from tissue; host or cells: rabbit lung
T1 sequence (P12822 34-1310): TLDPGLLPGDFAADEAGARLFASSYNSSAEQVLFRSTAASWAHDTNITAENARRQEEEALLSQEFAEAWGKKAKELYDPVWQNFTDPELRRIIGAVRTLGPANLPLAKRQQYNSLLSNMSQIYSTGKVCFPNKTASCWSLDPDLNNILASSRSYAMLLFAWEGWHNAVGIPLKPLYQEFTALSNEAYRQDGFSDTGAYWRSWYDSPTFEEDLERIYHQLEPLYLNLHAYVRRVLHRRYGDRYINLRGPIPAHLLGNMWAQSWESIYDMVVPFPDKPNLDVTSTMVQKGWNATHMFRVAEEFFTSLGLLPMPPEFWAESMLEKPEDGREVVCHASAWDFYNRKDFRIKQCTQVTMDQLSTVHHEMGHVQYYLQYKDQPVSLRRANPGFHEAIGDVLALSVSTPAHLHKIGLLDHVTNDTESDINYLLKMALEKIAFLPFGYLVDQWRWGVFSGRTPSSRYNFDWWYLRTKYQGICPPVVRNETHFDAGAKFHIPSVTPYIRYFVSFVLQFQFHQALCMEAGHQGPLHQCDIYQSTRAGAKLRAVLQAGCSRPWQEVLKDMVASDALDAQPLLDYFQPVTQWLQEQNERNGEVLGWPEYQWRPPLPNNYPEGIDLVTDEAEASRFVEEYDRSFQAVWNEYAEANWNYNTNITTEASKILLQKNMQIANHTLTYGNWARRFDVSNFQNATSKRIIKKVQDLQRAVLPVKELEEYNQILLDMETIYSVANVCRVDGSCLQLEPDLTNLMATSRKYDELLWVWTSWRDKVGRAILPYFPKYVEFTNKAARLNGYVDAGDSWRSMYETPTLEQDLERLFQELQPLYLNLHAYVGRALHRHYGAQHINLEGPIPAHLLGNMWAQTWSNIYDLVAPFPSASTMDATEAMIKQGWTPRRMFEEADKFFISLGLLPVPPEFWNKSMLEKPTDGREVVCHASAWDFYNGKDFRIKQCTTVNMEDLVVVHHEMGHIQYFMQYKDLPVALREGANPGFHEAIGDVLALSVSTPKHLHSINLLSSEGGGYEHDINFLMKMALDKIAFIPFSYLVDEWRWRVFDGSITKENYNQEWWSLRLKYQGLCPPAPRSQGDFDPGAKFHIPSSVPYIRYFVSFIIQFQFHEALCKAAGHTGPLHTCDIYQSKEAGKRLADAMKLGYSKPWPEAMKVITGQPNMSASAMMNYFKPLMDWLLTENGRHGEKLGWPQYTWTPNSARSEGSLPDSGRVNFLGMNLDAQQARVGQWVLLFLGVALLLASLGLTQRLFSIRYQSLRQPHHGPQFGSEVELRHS
Method: (§1) The compounds [I] according to the present invention may be expected to be useful as a […], since they have an excellent ACE inhibitory effect. This has been well evidenced by an experiment using ACE extracted from rabbit lung and purified. The ACE inhibitory effect of the compounds of the present invention was determined according to the following illustrative test and the results will be shown in the following Table 1.
The compounds of the present invention act to inhibite angiotensin converting enzyme which converts angiotensin I, produced by the action of the enzyme renin from angiotensinogen, to angiotensin II which acts as a pressor agent. Therefore, these compounds may be expected to be effective in the treatment of hypertension.

[2] = system: angiotensin converting enzyme (ACE); test: Inhibition of the angiotensin-induced rise in blood pressure in rats after oral administration (illustrative test, ACE inhibitory effect); format: in vivo, male rats (Spraque-Dawleg); conditions: angiotensin I 300 ng/kg and angiotensin II 100 ng/kg i.v., maximum blood pressure rise vs control
Method: as §1
In this test, male rats (Spraque-Dawleg) of 250 to 350 g in weight were used, which were raised under conditions of free access to food and water.
The day before the test, each rat was narcotized by sodium pentobarbital (50 mg/kg) injected intraperitoneally. A polyethylene tube was inserted into a vein at the groin and fixed in order to introduce angiotensin and, further, another polyethylene tube was inserted into an artery at the groin and fixed to measure the blood pressure thereof. The blood pressure was determined by the use of an electronic sphygmomanometer (Nihon Kohden Kogyo Co., Ltd. type MP-4T).
Each rat was injected with 300 ng/kg of angiotensin I and 100 ng/kg of angiotensin II through the vein at the groin and the blood pressure recorded periodically and the maximum value of the rise in the blood pressure resulting from the injection of angiotensin was determined for use as a control.
Then, the percentage of inhibitory effect was determined by orally administering 13.8 μM/kg of a compound of the invention to each rat, and injecting 300 ng/kg of angiotensin I and 100 ng/kg of angiotensin II into the vein at the groin at periods of 20, 60 or 120 minutes after the administration of the compound, with maximum blood pressures being determined by periodically measuring the blood pressure and comparing each maximum value obtained with that of the controls.

**Q.** How did the IC50 [1] turn out when `O=C(O)C1Cc2ccccc2C(=O)N1C(=O)CCS` (centres unmarked) [Example 1, 2-(3-mercaptopropionyl)-1-oxo-1,2,3,4-tetrahydro-3-isoquinoline carboxylic acid] was run?
**A.** 0.051 µM

**Q.** What about the “Inhibition (%)” value ([2]; 20 min after oral 13.8 μM/kg) of the same compound?
**A.** 81%

**Q.** And the “Inhibition (%)” value ([2]; 60 min after oral 13.8 μM/kg)?
**A.** 78%

**Q.** And the “Inhibition (%)” value ([2]; 120 min after oral 13.8 μM/kg)?
**A.** 59%

**Q.** What does the source list for `CC(CS)C(=O)N1C(=O)c2ccccc2CC1C(=O)O` (centres unmarked) [Example 2, 2-(3-mercapto-2-methylpropionyl)-1-oxo-1,2,3,4-tetrahydro-3-isoquinoline carboxylic acid]?
**A.** IC50 [1]: 0.073 µM; Inhibition (%) ([2]; 20 min after oral 13.8 μM/kg): 83%; Inhibition (%) ([2]; 60 min after oral 13.8 μM/kg): 70%; Inhibition (%) ([2]; 120 min after oral 13.8 μM/kg): 72%
